System: VA-ES-BJ tumor spheroid viability
Assay: Anticancer human tumor VA-ES-BJ cell line growth inhibition;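 further: spheroids exposed to compounds for seven days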;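 on viability, T/C: percent of DMSO vehicle control viability so 100% = untreated growth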
Conditions: spheroids with HUVEC and MSC; for IC50: curve of first compound; for viability, T/C: stronger effect = lower value
From the text: Multicellular complex tumor spheroid response to DNA repair inhibitors in combination with DNA-damaging drugs
This study explores the anticancer activities of DNA-damaging drugs and inhibitors of DNA damage repair, both as single agents and in combinations. Complex tumor spheroids comprised of malignant cells, endothelial cells and mesenchymal stem cells served as an in vitro model for human solid tumors. This model system incorporates physiologically relevant features and patient-derived or established malignant cell lines with clinically relevant genetic alterations from many tumor types. Twenty-six patient-derived or established malignant cell lines were evaluated representing sarcoma, melanoma, small cell lung cancer (SCLC), non-small cell lung cancer (NSCLC), as well as bladder, ovarian and pancreatic cancers. The concentration ranges selected for each drug and investigational agent were based upon clinically achievable concentrations if the clinical Cmax of the agent was known.
Compounds. The drugs and compounds olaparib (NSC753686), talazoparib (NSC767125), berzosertib (NSC777718), elimusertib (NSC800525), nedisertib (NSC802822), VX-984 (NSC792969), AZD-1390 (NSC803789), temozolomide (NSC362856), topotecan (NSC609699), trabectedin (NSC813783), staurosporine (NSC755774), and gemcitabine (NSC613327) were obtained from the National Cancer Institute (NCI) Developmental Therapeutics Program Chemical Repository. The FDA-approved anticancer drug set is available from the Developmental Therapeutics Program at https://dtp.cancer.gov/organization/dscb/obtaining/available_plates.htm. […] The stock solutions were prepared in dimethyl sulfoxide (DMSO, Sigma-Aldrich, St. Louis, MO, cat. D2650) at 400-fold the tested concentration and stored at -70 degrees C. Prior to their use, the stock solutions were diluted in fresh medium and the final DMSO concentration in the assay was 0.25% (v/v). All drugs and investigational agents were tested over a range starting from a high concentration at or near the clinical Cmax and decreasing in half-log increments. If the clinical Cmax for an agent had not been determined, the highest concentration tested was 10 microM.
Cell Lines. The patient-derived cancer cell (PDC) lines: 156681-154-R-J1-PDC, 283228-195-R-J1-PDC, 287954-098-R-J1-PDC, 292921-168-R-J2-PDC, 349418-098-R-PDC, 425362-245-T-J1-PDC, 556581-035-R-J1-PDC, and BL0293-F563-PDC were received from the NCI Patient-Derived Models Repository (PDMR, https://pdmr.cancer.gov). The established cell lines HS-SY-2 (RRID:CVCL_8719), MPNST, and SYO-1 (RRID:CVCL_7146) were obtained from the Sloan Kettering Institute. The alveolar soft parts sarcoma cell line ASPS-1 (RRID:CVCL_S738) was established at the NCI and grown from internal seed stocks. The following established cell lines were purchased from the American Type Culture Collection (ATCC, Manassas, VA): G-401 (ATCC, cat. CRL-1441, RRID:CVCL_0270), SW982 (ATCC, cat. HTB-93, RRID:CVCL_1734), VA-ES-BJ (ATCC, cat. CRL-2138, RRID:CVCL_1785), NCI-H719 (ATCC, cat. CRL-5837, RRID:CVCL_1582), NCI-H196 (ATCC, cat. CRL-5823, RRID:CVCL_1509), NCI-H841 (ATCC, cat. CRL-5845, RRID:CVCL_1595), NCI-H1618 (ATCC, cat. CRL-5879, RRID:CVCL_1480), NCI-H1876 (ATCC, cat. CRL-5902, RRID:CVCL_1503), DMS 114 (ATCC, cat. CRL-2066; RRID:CVCL_1174), NCI-H211 (ATCC, cat. CRL-5824; RRID:CVCL_1529), and SW 1271 (ATCC, cat. CRL-2177, RRID:CVCL_1716). The small cell lung cancer cell line COR-L88 was purchased from Sigma-Aldrich (cat. 92031917-1VL, RRID:CVCL_1141). The non-small cell lung cancer cell lines NCI-H226 (RRID:CVCL_1544) and NCI-H322M (RRID:CVCL_1557) were established at the NCI and grown from internal seed stocks. Pooled donor human umbilical vein endothelial cells (HUVEC, Lonza, cat. CC-2519) and human mesenchymal stem cells (hMSC, Lonza, cat. PT-2501) were purchased from Lonza (Walkersville, MD).
Cell Culture. All cells were maintained in an incubator at 37 degrees C and 5% CO2 with 95% humidity. […]

Structure (SMILES): O=C(c1cc(Cc2n[nH]c(=O)c3ccccc23)ccc1F)N1CCN(C(=O)C2CC2)CC1 + CC[C@@]1(O)C(=O)OCc2c1cc1n(c2=O)Cc2cc3c(CN(C)C)c(O)ccc3nc2-1
- IC50 (second compound 0.003 µM): 12000 nM
- IC50 (second compound 0.00949 µM): 2080 nM
- IC50 (second compound 0.03 µM): < 94.9 nM
- IC50 (second compound 0.0949 µM): < 94.9 nM
- IC50 (second compound 0.3 µM): < 94.9 nM
- viability, T/C (second compound 0.003 µM, first compound 0.0949 µM): 79.5%
- viability, T/C (second compound 0.003 µM, first compound 0.3 µM): 86.5%
- viability, T/C (second compound 0.003 µM, first compound 0.949 µM): 84.7%
- viability, T/C (second compound 0.003 µM, first compound 3 µM): 72.9%
- viability, T/C (second compound 0.003 µM, first compound 9.49 µM): 54.3%
- viability, T/C (second compound 0.003 µM, first compound 30 µM): 35.1%
- viability, T/C (second compound 0.00949 µM, first compound 0.0949 µM): 54.4%
- viability, T/C (second compound 0.00949 µM, first compound 0.3 µM): 62%
- viability, T/C (second compound 0.00949 µM, first compound 0.949 µM): 56.3%
- viability, T/C (second compound 0.00949 µM, first compound 3 µM): 46%
- viability, T/C (second compound 0.00949 µM, first compound 9.49 µM): 30.9%
- viability, T/C (second compound 0.00949 µM, first compound 30 µM): 13.7%
- viability, T/C (second compound 0.03 µM, first compound 0.0949 µM): 11.3%
- viability, T/C (second compound 0.03 µM, first compound 0.3 µM): 11.9%
- viability, T/C (second compound 0.03 µM, first compound 0.949 µM): 11.7%
- viability, T/C (second compound 0.03 µM, first compound 3 µM): 8.85%
- viability, T/C (second compound 0.03 µM, first compound 9.49 µM): 4.72%
- viability, T/C (second compound 0.03 µM, first compound 30 µM): 3.5%
- viability, T/C (second compound 0.0949 µM, first compound 0.0949 µM): 6.59%
- viability, T/C (second compound 0.0949 µM, first compound 0.3 µM): 7.45%
- viability, T/C (second compound 0.0949 µM, first compound 0.949 µM): 7.51%
- viability, T/C (second compound 0.0949 µM, first compound 3 µM): 7.62%
- viability, T/C (second compound 0.0949 µM, first compound 9.49 µM): 6.91%
- viability, T/C (second compound 0.0949 µM, first compound 30 µM): 2.51%
- viability, T/C (second compound 0.3 µM, first compound 0.0949 µM): 7.75%
- viability, T/C (second compound 0.3 µM, first compound 0.3 µM): 8%
- viability, T/C (second compound 0.3 µM, first compound 0.949 µM): 8.29%
- viability, T/C (second compound 0.3 µM, first compound 3 µM): 8.19%
- viability, T/C (second compound 0.3 µM, first compound 9.49 µM): 7.94%
- viability, T/C (second compound 0.3 µM, first compound 30 µM): 4.56%

Reference: PubChem BioAssay AID1845217 (Molecular Pharmacology Branch, DTP, NCI, 2023)
